From patent US8993282B2, “Carotenoid fermentation method” (JX Nippon Oil & Energy Corporation, priority 2008, dated 2015)

Experiments:
[1] = tested on: Paracoccus sp. strain A-581-1 (FERM BP-4671); assay: Glutamate supplementation, 5 L fermentation tank culture, carotenoid by HPLC; format: cell-based
Procedure: (§1) In the examples, carotenoids were quantified by high performance liquid chromatography (HPLC) as follows.
(§2) Two columns of Wakosil-II 5 SIL-100 (φ4.6×250 mm) (Wako Pure Chemical Industries, Ltd., Japan) were connected to each other for use as a column. Elution was performed by flowing an n-hexane-tetrahydrofuran-methanol mixed solution (40:20:1), which was a mobile phase, at a flow rate of 1.0 mL/minute at a constant temperature around room temperature. The measurement was performed as follows. Samples were each dissolved in tetrahydrofuran and then diluted 100-fold with the mobile phase. Each dilution was injected in a volume of 20 μL. The column eluate was detected at a wavelength of 470 nm. As a reference for quantification, astaxanthin (SIGMA, Cat. No. A9335) was used. The astaxanthin concentration of the reference solution was determined using the following equation after measuring the absorbance (A) of the reference solution at 477 nm and the area percentage % (B) of the astaxanthin peak at the time of HPLC analysis under the above conditions. Astaxanthin concentration (mg/L)=A/2150×B×100
A medium of the following composition (sucrose 20 g/L, filtered corn steep liquor 5 g/L, potassium dihydrogenphosphate 0.54 g/L, dipotassium hydrogenphosphate 12-hydrate 2.78 g/L, calcium chloride dihydrate 5.0 g/L, magnesium sulfate 7-hydrate 0.7 g/L, iron sulfate 7-hydrate 3.0 g/L, alcohol-based […] agent 0.2 g/L, pH 7.5) was dispensed in 100 ml volumes into 500 mL cotton-plugged Erlenmeyer flasks and sterilized in an autoclave at 121° C., for 15 minutes to prepare a flask medium for seed culture in 2 flasks.
Next, a medium of the following composition (glucose 40 g/L, corn steep liquor 30 g/L, ammonium sulfate 0.5 g/L, potassium dihydrogenphosphate 2.25 g/L, disodium hydrogenphosphate 12-hydrate 5.7 g/L, calcium chloride dihydrate […], magnesium sulfate 7-hydrate 0.5 g/L, iron sulfate 7-hydrate 5 g/L, alcohol-based defoaming agent 0.5 g/L) was dispensed in 2.0 L volumes into 5 L fermentation tanks (2 tanks in total). One of the fermentation tanks was supplemented with monosodium L-glutamate monohydrate to 15 mmol/L, while the other was supplemented with nothing as a control. These fermentation tanks were sterilized in an autoclave at 121° C. for 30 minutes.
A loopful of Paracoccus sp. strain A-581-1 (FERM BP-4671) was inoculated into the flask medium for seed culture and then cultured with rotary shaking at 27° C. for 2 days at 150 rpm. The resulting culture solution was then inoculated in 90 mL volumes into the individual fermentation tanks, followed by aerobic culture at 27° C. at an aeration volume of 1 vvm for 100 hours. To maintain a pH of 7.1 during culture, the pH was continuously controlled with 20% aqueous sodium hydroxide. Glucose was added in an amount of 30 g on […] day 2 of culture to prevent glucose depletion. At 22 and 29 hours of culture, monosodium L-glutamate monohydrate and ammonium sulfate were added in amounts of 5 g and 3 g, respectively, per liter of the initial medium. The minimum number of agitation rotations was set to 100 rpm, and the number of agitation rotations was varied such that the dissolved oxygen concentration in the culture solution was maintained at 2 to 4 ppm. An alcohol-based defoaming agent was added in an amount of 0.1 g per hour to prevent bubble formation,
At the completion of culture, each culture solution was measured for its carotenoid concentration by HPLC.

[2] = tested on: Paracoccus sp. strain L-25; assay: Glutamate supplementation, test tube culture, lycopene-producing mutant, carotenoid by HPLC; format: cell-based
Procedure: as §1, §2
The strain E-396 (FERM BP-4283) was mutated with N-methyl-N′-nitro-N-nitrosoguanidine to select mutant strain colonies with red-purple color. Carotenoid compounds in their culture solutions were further analyzed by high performance liquid chromatography to select a strain L-25 specifically producing lycopene.
A medium of the following composition (sucrose 30 g/L, corn steep liquor 30 g/L, potassium dihydrogenphosphate 1.5 g/L, disodium hydrogenphosphate 12-hydrate 3.8 g/L, calcium chloride dihydrate 5.0 g/L, magnesium sulfate -hydrate 0.7 g/L, iron sulfate 7-hydrate 0.3 g/L, pH 7.2) was dispensed in 8 ml volumes into cotton-plugged test tubes having an inner diameter of 18 mm and sterilized in an autoclave at 121° C. for 15 minutes to prepare a test tube medium for seed culture.
Next, a medium of the following composition (glucose 30 g/L, filtered corn steep liquor 5 g/L, ammonium sulfate 1.5 g/L, potassium dihydrogenphosphate 1.5 g/L, disodium hydrogenphosphate 12-hydrate 3.8 g/L, calcium chloride dihydrate 5.0 g/L, magnesium sulfate 7-hydrate 0.7 g/L, iron sulfate 7-hydrate 0.6 g/L, ester-based defoaming agent 0.2 g/L) was dispensed in 8 ml volumes into cotton-plugged test tubes having an inner diameter of 18 mm (2 tubes in total). One of the test tubes was supplemented with monosodium L-glutamate monohydrate to 30 mmol/L, while the other was supplemented with nothing as a control. Finally, the mediums in the tubes were adjusted to pH 7.1 with aqueous ammonia and then sterilized in an autoclave at 121° C. for 20 minutes.
The Paracoccus sp. strain L-25 selected above was inoculated, into the test tube medium for seed culture and then cultured with shaking at 28° C. for 2 days at 300 spin. The resulting culture solution was then inoculated in 0.1 ml volumes into the two test tube mediums and cultured with shaking at 28° C. for 3 days at 300 spm. Each culture solution was measured for its carotenoid concentration by HPLC.

[3] = Glutamic acid concentration 15 mmol/L, 100 hours
[4] = Glutamic acid concentration 30 mmol/L, 28° C. for 3 days

SMILES: N[C@@H](CCC(=O)O)C(=O)O [Glutamic acid, glutamic acid]
- produced carotenoid concentration compared to the sample without glutamic acid ([1]; 15 mmol/L): higher produced carotenoid concentration
- 3-Hydroxyechinenone [1, 3]: 0.05 mg/L
- Adonixanthin [1, 3]: 2.10 mg/L
- Astaxanthin [1, 3]: 5.97 mg/L
- Asteroidenone [1, 3]: 0.02 mg/L
- Canthaxanthin [1, 3]: 1.22 mg/L
- Echinenone [1, 3]: 0.51 mg/L
- Phoenicoxanthin [1, 3]: 2.01 mg/L
- Total carotenoid [1, 3]: 13.68 mg/L
- Zeaxanthin [1, 3]: 0.03 mg/L
- β-Carotene [1, 3]: 1.76 mg/L
- β-Cryptoxanthin [1, 3]: 0.01 mg/L
- produced carotenoid concentration compared to the sample without glutamic acid ([2]; 30 mmol/L): higher produced carotenoid concentration
- Adonixanthin [2, 4]: 0.3 mg/L
- Astaxanthin [2, 4]: 0.3 mg/L
- Lycopene [2, 4]: 19.6 mg/L
- Total carotenoid [2, 4]: 20.2 mg/L
